The results in this text go back to patent US10087197B2, “Selective extraction of anions from solution” (Western Michigan University Research Foundation, priority 2012, dated 2018).

Series [1] is described as follows: Solubility of nano-jar aggregates and polymer in solvents. It is filed as physicochemical. Particulars: dark blue powder; for solubility in a wide variety of solvents: CCl4, CS2, aromatic hydrocarbons, ethers, ketones, esters, nitriles, amines, halogenated and nitro compounds, DMF and DMSO. An excerpt:
The unusually high solubility of (Bu4N)2[SO4^2−⊂{cis-Cu^II(μ-OH)(μ-pz)}6+12+10], and (Bu4N)2[SO4^2−⊂{cis-Cu^II(μ-OH)(μ-pz)}8+14+9]
Production of Host 1 and Host 2 via depolymerisation of [Cu^II(μ-OH)(μ-pz)]∞ includes the steps of combining aqueous solutions of CuSO4 and KOH/Hpz (1:2:1 molar ratio), which results in the formation of a blue-purple precipitate (Scheme 1). […] Elemental analysis results concur with the formula [Cu(OH)(pz)] (for C3H4CuN2O, M.W.=147.62, calculated/found: C, 24.4124.25%; H, 2.73/2.72%; N, 18.9818.40%). The structure of this intractable material likely consists of linear polymeric chains resulting from an all-trans arrangement of the pyrazole and OH moieties about the copper centers, similar to the ones found in [Cu^II(μ-pz)2]∞.
(Bu4N)HSO4 or (Bu4N)2SO4 can be added to a suspension of [Cu(μ-OH)(μ-pz)]∞ in THF or toluene, which leads to the immediate formation of a deep blue solution, and gradual dissolution of the solid. […] Hexane vapor diffusion to a toluene solution is then used to obtain dark blue single crystals in the form of blocks and thin plates.
In particular, one embodiment includes anion-encapsulating aggregates based on encapsulating host assemblies such as {cis-Cu^II(μ-OH)(μ-4-Mepz)}27 (“Host 13”), {cis-Cu^II(μ-OH)(μ-4-Mepz)}28(“Host 14”), {cis-Cu^II(μ-OH)(μ-4-Mepz)}29(“Host 15”), {cis-Cu^II(μ-OH)(μ-4-Mepz)}30(“Host 16”), {cis-Cu^II(μ-OH)(μ-4-Mepz)}31(“Host 17”), and {cis-Cu^II(μ-OH)(μ-4-Mepz)}32(“Host 18”). These alkyl ligand-bound pyrazole anion-encapsulating aggregates include 4-methylpyrazole (“4-Mepz”) and are somewhat soluble in pentane, hexane and cyclohexane. Hosts 13, 15, and 17 selectively encapsulate both carbonate and sulfate anions. Hosts 14 and 18 selectively encapsulate sulfate anions. Host 16 selectively encapsulates carbonate anions. These encapsulating host assemblies form anion-encapsulating aggregates which are capable of encapsulating anions present as contaminants in aqueous-hydrocarbon solvent mixtures, including without limitation in-process nuclear waste.
Another embodiment of an anion-encapsulating host containing a longer chain ligand-bound pyrazole is based on the formation of encapsulating host assemblies including 4-butylpyrazole. Anion-encapsulating aggregates incorporating 4-butylpyrazole are very soluble in pentane, hexane and cyclohexane, and are gradually less soluble in longer hydrocarbons (such as heptane, octane, decalin, and hexadecane). These anion-encapsulating aggregates can be used to encapsulate anions present as contaminants in aqueous-hydrocarbon solvent mixtures, such as those present in in-process nuclear waste.

The nature of series [2]: Thermal stability of rings on recrystallization from boiling n-butanol. In kind it is physicochemical. The note with it: recrystallization from boiling n-butanol (b.p.=118° C.). The method, then: (Bu4N)2[SO4^2−⊂{cis-Cu^II(μ-OH)(μ-pz)}28] can also be crystallized from chlorobenzene, 1,2-dichloroethane or n-butylamine by hexane vapor diffusion, and from CH2Cl2 by Et2O vapor diffusion. SO4^2−⊂{cis-Cu^II(μ-OH)(μ-pz)}31 can also be crystallized as the Bu4N-salt from chlorobenzene. Moreover, crystals of (Bu4N)2[SO4^2−⊂{cis-Cu^II(μ-OH)(μ-pz)}28] were also obtained by recrystallization from boiling n-butanol (b.p.=118° C.), indicating stability of the rings at that temperature.

Series [3] is described as follows: Liquid-liquid extraction of sulfate from aqueous nitrate solution at pH 14. Particulars: 5 M nitrate (NaNO3), 0.044 M sulfate (Na2SO4), 1.25 M NaOH (pH 14); sulfate to nitrate ratio 1:114. An excerpt: In experiments, an aqueous solution containing 5 M nitrate (NaNO3), 0.044 M sulfate (Na2SO4) and 1.25 M NaOH (pH 14), in which the sulfate to nitrate ratio is 1:114 was combined together with an organic phase containing the stoichiometrically (based on the amount of sulfate) required amounts of nano-jar components.

A short description of series [4]: Preliminary selectivity study: self-assembly reaction with competing anions, sulfate determined gravimetrically as BaSO4. The note with it: for encapsulation of sulfate into the product: 1:54 molar ratio of sulfate and nitrate (or perchlorate) anions, gravimetric as BaSO4 after digestion with 6M HCl; for selectivity for sulfate ion in the presence of halides: in the presence of fluoride, chloride and bromide ions; for preference for sulfate anion over nitrate or perchlorate anions: preliminary selectivity studies. An excerpt: A self-assembly reaction using a 1:54 molar ratio of sulfate and nitrate (or perchlorate) anions led to the quantitative encapsulation of sulfate into the product, as determined gravimetrically by precipitation as BaSO4 after digestion with 6M HCl. […] The selectivity for sulfate over nitrate, along with the stability at high (basic) pH is especially relevant for the sulfate-extraction efforts during nuclear waste treatment by vitrification, because it allows liquid-liquid extraction. The methods described herein also offer the benefit of recyclability of the sulfate-encapsulating assemblies. The encapsulating host assemblies can be recovered by stirring the dry residue obtained after BaSO4 precipitation (containing CuCl2, Hpz and Et3NHCl) with excess Et3N in DMF. Following such mixing, the characteristic absorption at 599 nm indicates the re-assembly of the [cis-Cu^II(μ-OH)(μ-pz)]n rings.

Consider “(Bu4N)2[SO4^2−⊂{cis-Cu^II(μ-OH)(μ-pz)}6+12+10]”, for which, in series [1], the “solubility in a wide variety of solvents” value is on record as “highly soluble”; the solubility in alcohols result is recorded as “slightly soluble”; the “solubility in aliphatic hydrocarbons and water” value was “insoluble”. In addition, in series [2], the “stability of the rings at temperature” value is recorded as “stability”.

{cis-Cu^II(μ-OH)(μ-pz)}8+14+9 [Host 2]: the “extraction of sulfate anions from aqueous phase to organic phase” value in series [3] was “effectively and selectively extracted”. In series [4], the “encapsulation of sulfate into the product” value is “quantitative”, the “selectivity for sulfate ion in the presence of halides” value is recorded as “Partial selectivity” and the “preference for sulfate anion over nitrate or perchlorate anions” value is given as “marked preference”.

For {cis-Cu^II(μ-OH)(μ-pz)}6+12+10 [Host 1], in series [3], the “extraction of sulfate anions from aqueous phase to organic phase” value was “effectively and selectively extracted”. In series [4], the “encapsulation of sulfate into the product” value is “quantitative”, the “selectivity for sulfate ion in the presence of halides” value is recorded as “Partial selectivity” and the “preference for sulfate anion over nitrate or perchlorate anions” value was “marked preference”.

With “(Bu4N)2[SO4^2−⊂{cis-Cu^II(μ-OH)(μ-pz)}8+14+9]”, in series [1], the “solubility in a wide variety of solvents” value was “highly soluble”; the solubility in alcohols entry is “slightly soluble”; the “solubility in aliphatic hydrocarbons and water” value is on record as “insoluble”.
